In ChEMBL document CHEMBL1201862, “PubChem BioAssay data set” (2004):
The source made the active and inactive calls.

Columns and labels:
[1] = general cell-killing toxicity readout – plate reader, dry powder samples, cytotoxicity control for PAX8 inhibitor project, dose response (AID 743021); assay type: functional, cell-based
Paired box protein Pax-8 = Paired box protein Pax-8 (Homo sapiens, UniProt Q06710); assay: PAX8 transcriptional activity inhibition in RMG-I – RMG-I cells, luciferase, cherry-pick, dose response (AID 687027); assay type: functional, cell-based;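 further: luciferase reporter driven by Pax8 target thyroperoxidase promoter measured by SteadyGlo luminescence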
[2] = blockers of bursicon-stimulated LGR2 cAMP reporter – cell-based, HEK293, CRE-luciferase reporter, cherry pick, set 2, dose response (AID 743343); assay type: functional;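 further: transfected cells were stimulated with diluted bursicon conditioned medium after compound addition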
[3] = viability loss in HEK293 cells – cell-based, plate reader, cherry-picked samples, cytotoxicity control, dose response (AID 743446); assay type: functional
[4] = blockade of melanocortin 4 receptor signaling – cell-based, plate reader, cherry pick, counter-screen for LGR2 antagonist project, dose response (AID 743444); assay type: functional;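 further: transfected HEK 293 cells stimulated with alpha-MSH peptide; potency of inhibitors of the alpha-MSH evoked signal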
[5] = A549 cell cytotoxicity, dose response, cytotoxicity control, plate reader, cherry-pick, antagonist series (AID 743412); assay type: functional, cell-based
[6] = toxicity toward HepG2 liver cells – cell-based, plate reader, cherry-pick, antagonist series, cytotoxicity control, dose response (AID 743416); assay type: functional
[7] = viability loss in THP-1 monocytes – THP-1 cells, cytotoxicity control for Vif-APOBEC3G degradation inhibitor project, dose response (AID 1117359); assay type: functional; settings: THP-1
[8] = target: T1, Mannose-6-phosphate isomerase (Homo sapiens, UniProt P34949); assay: MPI inhibition at elevated mannose 6-phosphate – biochemical, fluorescence intensity, high mannose 6-phosphate, primary screen (AID 1220)
T1 sequence (P34949 whole entry): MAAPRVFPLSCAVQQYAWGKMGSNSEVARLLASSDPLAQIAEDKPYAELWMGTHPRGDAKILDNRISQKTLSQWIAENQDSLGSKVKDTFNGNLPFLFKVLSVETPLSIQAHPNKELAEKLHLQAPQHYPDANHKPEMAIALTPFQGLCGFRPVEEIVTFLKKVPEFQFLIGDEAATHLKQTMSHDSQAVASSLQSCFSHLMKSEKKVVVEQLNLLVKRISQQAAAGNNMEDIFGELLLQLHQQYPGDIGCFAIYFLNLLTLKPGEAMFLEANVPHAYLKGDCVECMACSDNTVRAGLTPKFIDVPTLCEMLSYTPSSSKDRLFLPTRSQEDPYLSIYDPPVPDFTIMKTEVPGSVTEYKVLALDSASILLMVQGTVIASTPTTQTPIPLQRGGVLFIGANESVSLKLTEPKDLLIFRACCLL

[9] = target: T2, Microphthalmia-associated transcription factor (Homo sapiens, UniProt O75030); assay: reducers of TRPM1 reporter luminescence, concentration series – cell-based, SK-MEL-5, cherry-picked, set 3, MITF inhibitor project, dose response (AID 493073); assay type: functional;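 further: SK-MEL-5 melanoma cells with luciferase driven by the MITF target TRPM1 promoter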
T2 sequence (O75030 whole entry): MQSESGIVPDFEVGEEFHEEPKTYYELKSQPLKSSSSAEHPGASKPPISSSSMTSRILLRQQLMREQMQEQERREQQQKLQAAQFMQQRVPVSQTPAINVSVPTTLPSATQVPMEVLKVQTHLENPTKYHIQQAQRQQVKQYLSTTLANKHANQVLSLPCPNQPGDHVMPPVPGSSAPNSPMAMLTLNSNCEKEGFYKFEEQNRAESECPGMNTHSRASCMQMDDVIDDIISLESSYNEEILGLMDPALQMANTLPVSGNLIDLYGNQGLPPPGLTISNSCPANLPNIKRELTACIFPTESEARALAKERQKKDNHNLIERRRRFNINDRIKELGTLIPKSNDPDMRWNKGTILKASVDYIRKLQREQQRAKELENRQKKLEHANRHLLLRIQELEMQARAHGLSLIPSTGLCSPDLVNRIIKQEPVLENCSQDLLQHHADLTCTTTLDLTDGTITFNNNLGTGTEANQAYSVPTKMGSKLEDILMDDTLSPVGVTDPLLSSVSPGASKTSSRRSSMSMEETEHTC

[10] = Luminescence Cell-Based Dose Confirmation HTS to Identify Inhibitors of Platelet Dense Granule Release. [Related pubchem assays: 1663 (Primary HTS), 1678 (Summary of Project)]; assay type: functional
[11] = off-target signal loss in HeLa-CEM21 co-culture – HeLa F-luc CTL cells, cherry-picked, counter-screen for HIV-1 Env fusion inhibitor project, dose response (AID 652040); assay type: functional, cell-based;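 further: potency for signal decrease marking cytotoxic or nonspecific inhibition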
[12] = target: Luciferin 4-monooxygenase (Photinus pyralis, UniProt P08659); assay: inhibition of purified Photinus pyralis luciferase – biochemical, luminescence, dose response (AID 1891)
[13] = viability loss in CEM21 cells – cell-based, CellTiter-Glo luminescence, cherry-picked, cytotoxicity control for viral fusion inhibitor project, dose response (AID 652042); assay type: functional;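 further: potency for signal decrease meaning cytotoxicity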
[14] = blockers of HIV-1 ZM109 envelope-driven cell-cell fusion – HeLa effector, CEM target cells, luciferase, cherry-pick, dose response (AID 652058); assay type: functional, cell-based;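 further: luciferase signal from HIV-1 Env mediated cell-cell fusion of effector and target cells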
[15] = HIV-1 AD8 envelope cell-cell fusion blockers – cherry-pick, dose response (AID 652062); assay type: functional, cell-based;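 further: luciferase signal from cell-cell fusion driven by HIV-1 clade B AD8 Env; potency is for inhibitors of fusion seen as a drop in luminescence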
[16] = blockers of HIV-1 envelope-mediated cell-cell fusion – cherry-pick, dose response (AID 652057); assay type: functional, cell-based
[17] = target: T3, Oxysterols receptor LXR-beta (Homo sapiens, UniProt P55055); assay type: functional, cell-based;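 further: Cell-based luminescence dose-response assay of agonist activity at LXR, run as a confirmatory counterscreen to a daf-12 agonist screen; HEK293 cells with Gal4-LXR fusion and GAL4-driven luciferase reporter; agonist potency from rising luciferase signal of a Gal4-LXR reporter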
T3 sequence (P55055 whole entry): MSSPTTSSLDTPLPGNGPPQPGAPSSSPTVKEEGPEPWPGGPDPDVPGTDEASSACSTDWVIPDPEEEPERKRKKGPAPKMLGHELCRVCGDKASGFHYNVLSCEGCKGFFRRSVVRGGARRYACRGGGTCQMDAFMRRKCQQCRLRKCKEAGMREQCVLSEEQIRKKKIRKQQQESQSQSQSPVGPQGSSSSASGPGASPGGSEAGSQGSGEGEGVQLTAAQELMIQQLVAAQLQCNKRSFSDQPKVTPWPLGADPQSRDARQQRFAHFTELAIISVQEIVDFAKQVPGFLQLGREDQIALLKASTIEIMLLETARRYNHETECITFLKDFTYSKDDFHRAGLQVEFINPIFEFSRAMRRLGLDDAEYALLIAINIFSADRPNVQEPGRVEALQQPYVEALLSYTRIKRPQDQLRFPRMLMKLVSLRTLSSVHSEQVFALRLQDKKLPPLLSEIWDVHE

[18] = target: Mitogen-activated protein kinase 10 (Homo sapiens, UniProt P53779); assay: Dose response biochemical screening assay for inhibitors of c-Jun N-Terminal Kinase 3 (JNK3). [Related pubchem assays: 746 ]
Protein skinhead-1 = target: T4, Protein skinhead-1 (Caenorhabditis elegans, UniProt P34707); assay type: functional
T4 sequence (P34707 whole entry): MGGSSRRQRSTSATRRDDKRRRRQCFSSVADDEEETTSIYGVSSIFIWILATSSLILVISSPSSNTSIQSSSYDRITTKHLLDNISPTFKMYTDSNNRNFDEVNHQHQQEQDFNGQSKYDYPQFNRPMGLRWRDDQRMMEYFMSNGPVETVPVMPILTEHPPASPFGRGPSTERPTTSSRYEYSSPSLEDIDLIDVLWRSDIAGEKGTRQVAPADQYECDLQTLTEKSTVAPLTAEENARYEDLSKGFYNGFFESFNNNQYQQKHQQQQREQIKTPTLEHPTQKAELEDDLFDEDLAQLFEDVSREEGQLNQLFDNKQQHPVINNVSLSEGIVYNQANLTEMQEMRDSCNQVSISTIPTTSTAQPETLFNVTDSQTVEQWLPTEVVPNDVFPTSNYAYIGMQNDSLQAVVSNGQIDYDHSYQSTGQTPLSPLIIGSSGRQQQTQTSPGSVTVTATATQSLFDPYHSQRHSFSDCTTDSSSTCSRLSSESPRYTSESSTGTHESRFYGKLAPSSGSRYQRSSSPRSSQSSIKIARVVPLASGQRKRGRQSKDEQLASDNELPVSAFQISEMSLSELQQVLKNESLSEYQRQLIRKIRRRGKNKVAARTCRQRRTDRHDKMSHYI

Cytochrome P450 2C9 = Cytochrome P450 2C9 (Homo sapiens, UniProt P11712)
Cytochrome P450 3A4 = Cytochrome P450 3A4 (Homo sapiens, UniProt P08684);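 further: CYP3A4 tested as one member of a cytochrome P450 panel screen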
[19] = OVCAR8 cell viability loss – plate reader, dry powder samples, PAX8 project, dose response (AID 743197); assay type: functional, cell-based; settings: OVCAR-8

Sequence of Paired box protein Pax-8 (Q06710 whole entry): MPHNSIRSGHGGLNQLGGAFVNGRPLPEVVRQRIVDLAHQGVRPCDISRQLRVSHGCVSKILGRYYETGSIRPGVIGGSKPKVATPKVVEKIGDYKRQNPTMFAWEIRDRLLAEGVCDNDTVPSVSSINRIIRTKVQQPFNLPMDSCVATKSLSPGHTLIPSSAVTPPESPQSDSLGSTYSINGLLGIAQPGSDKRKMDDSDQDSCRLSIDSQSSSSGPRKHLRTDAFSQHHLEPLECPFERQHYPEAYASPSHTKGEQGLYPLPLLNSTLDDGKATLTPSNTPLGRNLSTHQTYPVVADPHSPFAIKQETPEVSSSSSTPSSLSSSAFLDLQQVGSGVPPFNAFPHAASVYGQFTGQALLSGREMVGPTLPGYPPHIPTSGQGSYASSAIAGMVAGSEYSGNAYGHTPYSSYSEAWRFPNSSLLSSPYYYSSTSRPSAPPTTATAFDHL
Sequence of Luciferin 4-monooxygenase (P08659 whole entry, the tested form may be a part): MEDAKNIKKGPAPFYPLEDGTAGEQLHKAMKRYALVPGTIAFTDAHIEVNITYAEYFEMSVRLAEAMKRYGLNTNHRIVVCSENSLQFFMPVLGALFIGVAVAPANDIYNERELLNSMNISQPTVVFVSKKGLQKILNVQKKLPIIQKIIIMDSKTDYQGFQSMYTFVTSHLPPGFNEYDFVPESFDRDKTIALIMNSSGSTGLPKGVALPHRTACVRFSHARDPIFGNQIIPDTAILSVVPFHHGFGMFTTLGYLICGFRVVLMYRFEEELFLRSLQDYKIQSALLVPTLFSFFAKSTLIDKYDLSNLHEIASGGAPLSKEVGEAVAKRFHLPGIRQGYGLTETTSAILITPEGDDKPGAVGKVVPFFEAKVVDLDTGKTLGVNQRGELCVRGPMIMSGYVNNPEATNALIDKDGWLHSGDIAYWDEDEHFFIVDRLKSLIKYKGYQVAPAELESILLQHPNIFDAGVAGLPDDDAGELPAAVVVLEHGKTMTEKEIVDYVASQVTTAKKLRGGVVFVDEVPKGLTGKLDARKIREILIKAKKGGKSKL
Sequence of Cytochrome P450 2C9 (P11712 whole entry): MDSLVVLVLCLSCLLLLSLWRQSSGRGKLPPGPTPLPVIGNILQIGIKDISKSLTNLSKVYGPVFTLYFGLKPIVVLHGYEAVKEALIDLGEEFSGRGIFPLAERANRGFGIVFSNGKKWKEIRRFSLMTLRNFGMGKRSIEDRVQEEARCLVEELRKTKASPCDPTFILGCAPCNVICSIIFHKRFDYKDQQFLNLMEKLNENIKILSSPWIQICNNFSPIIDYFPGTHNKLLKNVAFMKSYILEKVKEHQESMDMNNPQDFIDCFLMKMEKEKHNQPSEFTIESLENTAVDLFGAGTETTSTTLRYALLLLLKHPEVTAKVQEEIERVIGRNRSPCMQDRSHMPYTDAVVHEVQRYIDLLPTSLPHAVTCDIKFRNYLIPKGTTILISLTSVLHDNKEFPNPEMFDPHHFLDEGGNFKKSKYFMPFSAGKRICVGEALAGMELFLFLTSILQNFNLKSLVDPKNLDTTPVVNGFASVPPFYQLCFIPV
Sequence of Mitogen-activated protein kinase 10 (P53779 whole entry): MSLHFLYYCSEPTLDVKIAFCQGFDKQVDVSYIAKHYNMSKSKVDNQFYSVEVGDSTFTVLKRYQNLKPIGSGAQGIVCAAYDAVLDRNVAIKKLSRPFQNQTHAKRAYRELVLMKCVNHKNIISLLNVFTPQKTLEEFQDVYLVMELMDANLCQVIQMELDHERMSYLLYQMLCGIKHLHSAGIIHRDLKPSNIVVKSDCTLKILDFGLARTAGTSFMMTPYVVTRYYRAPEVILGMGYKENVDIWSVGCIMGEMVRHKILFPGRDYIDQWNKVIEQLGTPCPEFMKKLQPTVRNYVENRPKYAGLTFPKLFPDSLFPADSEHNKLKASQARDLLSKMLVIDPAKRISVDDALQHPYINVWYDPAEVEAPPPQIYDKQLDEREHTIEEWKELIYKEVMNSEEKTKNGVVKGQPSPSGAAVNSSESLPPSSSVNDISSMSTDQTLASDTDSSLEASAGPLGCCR
Sequence of Cytochrome P450 3A4 (P08684 whole entry): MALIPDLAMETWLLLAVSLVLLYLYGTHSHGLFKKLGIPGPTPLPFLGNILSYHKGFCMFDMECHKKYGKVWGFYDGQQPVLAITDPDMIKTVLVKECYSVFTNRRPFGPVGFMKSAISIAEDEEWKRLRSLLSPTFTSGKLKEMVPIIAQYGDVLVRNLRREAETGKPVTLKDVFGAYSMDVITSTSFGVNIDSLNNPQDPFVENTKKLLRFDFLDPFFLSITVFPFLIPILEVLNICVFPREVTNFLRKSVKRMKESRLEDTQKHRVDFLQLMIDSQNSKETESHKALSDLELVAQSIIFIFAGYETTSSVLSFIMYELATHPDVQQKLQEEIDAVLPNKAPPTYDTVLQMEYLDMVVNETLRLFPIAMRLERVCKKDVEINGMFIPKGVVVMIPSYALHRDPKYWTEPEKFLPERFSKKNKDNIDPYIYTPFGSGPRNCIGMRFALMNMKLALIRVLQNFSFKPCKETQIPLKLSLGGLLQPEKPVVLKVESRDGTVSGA

Q: Which AC50 [1] does the source give for COc1ccccc1-c1ccc(OCCCN2CCC(C(O)(c3ccccc3)c3ccccc3)CC2)cc1 here?
A: Its AC50 is 28.1 µM (active).

Q: What about the AC50 (Paired box protein Pax-8) of the same molecule?
A: The AC50 was 10.2 µM (active).

Q: What about the AC50 [2] of the same molecule?
A: The AC50 was 16.3 µM (active).

Q: What about the AC50 [3] of the same molecule?
A: The AC50 was 9.63 µM (active).

Q: And the AC50 [4]?
A: The AC50 was 18.1 µM (active).

Q: What about the AC50 [5] of the same molecule?
A: Its AC50 is 5.11 µM (active).

Q: What about the AC50 [6] of the same molecule?
A: Its AC50 is 6.44 µM (active).

Q: With COc1ccc(Cc2nnc(NC(=O)CSc3ccccc3)s2)cc1 as the molecule, how does the CC50 [7] read?
A: Its CC50 is > 40 µM (active).

Q: With O=C(CNc1cccc2ccccc12)N/N=C/C=C/c1ccco1 as the molecule, how does the IC50 [8] read?
A: Its IC50 is > 50 µM (not active).

Q: For O=C(O)c1ccc(N/N=C/c2ccc3nccnc3c2)cc1, which AC50 [9] is on record?
A: The AC50 was 696 nM (active).

Q: And the EC50 [10]?
A: Its EC50 is 7.25 µM (active).

Q: And the AC50 [11]?
A: Its AC50 is 2.97 µM (active).

Q: And the AC50 [1]?
A: Its AC50 is 30.5 µM (active).

Q: And the EC50 [12]?
A: Its EC50 is 3.43 µM (active).

Q: And the AC50 [13]?
A: Its AC50 is 46.5 µM (active).

Q: What about the AC50 (Paired box protein Pax-8) of the same molecule?
A: The AC50 was 2.07 µM (active).

Q: And the AC50 [14]?
A: Its AC50 is 6.51 µM (active).

Q: What about the AC50 [15] of the same molecule?
A: Its AC50 is 2.13 µM (active).

Q: What about the AC50 [16] of the same molecule?
A: Its AC50 is 685 nM (active).

Q: For O=C1C(/C=N/c2ccccc2O)=C(O)c2ccccc21, which EC50 (cells) is on record?
A: The EC50 was > 67.5 µM (inactive).

Q: And the EC50 [17]?
A: The EC50 was > 67.5 µM (inactive).

Q: And the IC50 [18]?
A: Its IC50 is 23.1 µM (not active).

Q: With Cn1c(-c2ccco2)nc2cc3ccccc3cc21 as the molecule, how does the EC50 (cells) read?
A: Its EC50 is > 67.5 µM (inactive).

Q: And the EC50 [10]?
A: The EC50 was 2.69 µM (active).

Q: What about the EC50 [12] of the same molecule?
A: The EC50 was 0.695 µM (active).

Q: And the IC50 (Protein skinhead-1)?
A: Its IC50 is 33.9 µM (active).

Q: What about the EC50 [17] of the same molecule?
A: The EC50 was > 67.5 µM (inactive).

Q: Which AC50 (Cytochrome P450 2C9) does the source give for COC(=O)c1ccccc1NC(=O)c1c(Br)cnn1C here?
A: Its AC50 is “inconclusive”.

Q: What about the AC50 (Cytochrome P450 3A4) of the same molecule?
A: Its AC50 is “inconclusive”.

Q: Which results are given for COc1ccccc1C#Cc1ccc2c(c1)O[C@H](CN(C)Cc1cccnc1)[C@H](C)CN([C@H](C)CO)S2(=O)=O?
A: AC50 (Paired box protein Pax-8): 8.98 µM (active); AC50 [19]: 31.8 µM (active)
